Here are results for five molecules from publication PMC5359555, “Mechanistic and structural basis of bioengineered bovine Cathelicidin-5 with optimized therapeutic activity” (Scientific Reports, 2017).

Several values for one entry are separate records, joined by “and”; a condition that tells them apart may be missing. Identical values can stand only once. Where a SMILES comes first, the peptide text is derived from it.

Test in data set [1]: not given
This is another data set of the same source.

Test in data set [2]: not given
This is another data set of the same source.

For data set [3], the system named is Plasmodium falciparum strain 3D7. Put plainly: microbe, parasite or virus in culture. The data set is classed as cell-based. As to conditions: for antimalarial activity (in words): at 10 and 30 μM. The protocol: Plasmodium falciparum strain 3D7 was cultured in RPMI-1640 supplemented with 25 mg/l L-Glutamine; HEPES, NaHCO3; 50 mg/l Hypoxanthin; Gentamicien; 10% human serum; and RBCs at 3% hematocrit in an atmosphere of 5% CO2, 5% O2, and 90% N2 at 37°C as previously described. The Plasmodium lactate dehydrogenase (pLDH) assay was performed to measure the parasitic growth inhibition as described elsewhere[49] with BMAP-28 and its analogues treatment. In brief, malstat reagent was added to a 96-well plate (100 μL in each well). A Plasmodium infected RBC mixture of 20 μL in each well was mixed thoroughly using a plate shaker. And then 10 μL of each 1 mg/ml diaphorase and Nitroblue tetrozolium (NBT) were added to each well. The solution in the 96-well plate was mixed properly until a brown color appears and the absorbance was measured at 650 nm under a plate reader (PowerWaveHT, BioTek Instruments, USA). The hemolytic assay was carried out as described earlier. Briefly, RBCs prepared from fresh blood (Hematocrit ~5%) were incubated for 1 h at 37 °C after addition of test peptides. Relative hemoglobin concentration in supernatants after centrifugation at 2000× g for 5 min was monitored by measuring the absorbance at 540 nm by the plate reader (PowerWaveHT, BioTek Instruments, USA). As positive control, 100% hemolysis was taken from samples in which 2% Triton X-100 was added.

Data set [4] deals with B16-F1 melanoma cells. The data set can be described thus: MTT cell-viability assay, B16-F1 melanoma. The data set is classed as cell-based, mouse. Here is the method: (§1) The T-cell lymphoma (Jurkat) and B-cell lymphoma (Ramos) were cultured using RPMI-1640 medium supplemented with 10% fetal calf serum (FCS), 100 U ml^−1 penicillin and 100 μg ml^−1 streptomycin. An initial cell densities of 5 × 10^3 cells/well was uniformly maintained in a 96 well plate. The B16-F1 melanoma cells were grown in DMEM medium containing 10% FCS, 100 U ml^−1 penicillin and 100 μg ml^−1 streptomycin and 55 μM 2-mercaptoethanol. The cells were trypsinized and plated in a 96-well plate at a density of 5 × 10^3 cells/well. The cells were grown overnight at 37 °C using a 5% CO2 incubator. The cells were treated with different peptide concentration followed by cell proliferation assay. The MTT assay kit (Cayman chemicals, USA) was used to measure the cell viability at a peptide concentration varying from 2 to 15 μM (in triplicate). Fresh culture medium and cells in medium without peptide were considered as negative and positive controls for viability assay and was monitored at 24, 48 and 72 h. The Cayman MTT cell proliferation assay protocol was followed, and the absorbance were recorded at 570 nm using a microplate reader (PowerWaveHT, BioTek Instruments, USA).

In data set [5] the test system is Gram-positive and Gram-negative strains (E. coli BL21, Bacillus subtilis, Staphylococcus epidermis). The data set is classed as cell-based. As to conditions: even at one order higher concentration than MIC ~2 μM. The protocol:
The Escherichia coli strains BL21 and DH5α were obtained from Novagen and Takara Clontech, respectively. The Bacillus subtilis (3009) and Staphylococcus epidermis (12993) were purchased from NITE Biological Resource Center (NBRC, Japan). The bacterial growth procedures followed in this study were described elsewhere. The mid-log phase microbial growth (~4 × 10^7 cells/mL, 5 μL) was used for growth assay in a 96-well plate (5 replicates) at a variable peptide concentration incubated at 37 °C for 12–48 h.

Data set [6] has as its system B-cell lymphoma (Ramos). The data set is classed as cell-based. As to conditions: at a concentration higher than 30 μM. The protocol: as §1, with “The MTT assay kit (Cayman chemicals, USA) was used to measure the cell viability at a peptide concentration varying from 2 to 15 μM (in triplicate).” left out

With `CC[C@H](C)[C@H](NC(=O)[C@H](CCCNC(=N)N)NC(=O)[C@@H](NC(=O)[C@@H](NC(=O)[C@@H]1CCCN1C(=O)[C@@H](NC(=O)[C@@H](NC(=O)[C@@H](NC(=O)[C@@H]1CCCN1C(=O)CNC(=O)[C@H](Cc1ccc(O)cc1)NC(=O)[C@H](CCCCN)NC(=O)[C@H](CCCCN)NC(=O)[C@H](Cc1c[nH]c2ccccc12)NC(=O)[C@H](C)NC(=O)[C@H](CCCNC(=N)N)NC(=O)[C@H](CC(C)C)NC(=O)[C@@H](NC(=O)[C@H](CCCCN)NC(=O)[C@H](CCCNC(=N)N)NC(=O)CNC(=O)[C@H](CC(C)C)NC(=O)[C@H](CO)NC(=O)[C@H](CCCNC(=N)N)NC(=O)[C@H](CC(C)C)NC(=O)CNC(=O)CN)[C@@H](C)CC)[C@@H](C)CC)[C@@H](C)CC)C(C)C)[C@@H](C)CC)[C@@H](C)CC)C(=O)NCC(=O)O` (H-GGLRSLGRKILRAWKKYGPIIVPIIRIG-OH), the β-sheet content was 7.1% and 25.3% and 7.5%. Further, the β content in data set [1] was 14.3% and 21.5%. Moreover, the α content in data set [2] was 11.1% and 11.9%.

For orientation: inhibition means the change of the read-out against control, counted positive when it falls. Turning to `C[C@@H]1CC[C@H]2[C@@H](C)C(=O)O[C@@H]3O[C@@]4(C)CC[C@@H]1[C@]32OO4` [Art, artemisinin, reference compound], in data set [3] (Plasmodium falciparum, 3D7, 5 μM, positive control, pLDH assay, read-out: growth inhibition (%) of P. falciparum), the inhibition at 5 µM was 100%.

Consider `CC[C@H](C)[C@H](NC(=O)[C@H](CCCCN)NC(=O)[C@H](CCCNC(=N)N)NC(=O)CNC(=O)[C@H](CC(C)C)NC(=O)[C@H](CO)NC(=O)[C@H](CCCNC(=N)N)NC(=O)[C@H](CC(C)C)NC(=O)CNC(=O)CN)C(=O)N[C@@H](CC(C)C)C(=O)N[C@@H](CCCNC(=N)N)C(=O)N[C@@H](C)C(=O)N[C@@H](Cc1c[nH]c2ccccc12)C(=O)N[C@@H](CCCCN)C(=O)N[C@@H](CCCCN)C(=O)N[C@@H](Cc1ccc(O)cc1)C(=O)NCC(N)=O` [BMAP-28_1–18] (H-GGLRSLGRKILRAWKKYG-NH2; N-terminus assumed), for which, in data set [4], the “concentration found to be active” value is on record as ~ 30 μM. Besides, the “anticancer activity (in words)” value in data set [4] (10 μM) is on record as “fairly low anticancer activity”.

As for `CC(C)C[C@H](NC(=O)CNC(=O)CN)C(=O)N[C@@H](CCCNC(=N)N)C(=O)N[C@@H](CO)C(=O)N[C@@H](CC(C)C)C(=O)NCC(=O)N[C@@H](CCCNC(=N)N)C(=O)N[C@@H](CCCCN)C(=O)N[C@@H](C)C(=O)N[C@@H](C)C(=O)N[C@@H](CCCNC(=N)N)C(=O)N[C@@H](C)C(=O)N[C@@H](Cc1c[nH]c2ccccc12)C(=O)N[C@@H](CCCCN)C(=O)N[C@@H](CCCCN)C(=O)N[C@@H](Cc1ccc(O)cc1)C(=O)NCC(N)=O` [Syn2] (H-GGLRSLGRKAARAWKKYG-NH2; N-terminus assumed), the “antimalarial activity (in words)” value in data set [3] is “very low potentiality”. The “antimicrobial activity (in words)” value in data set [5] is “loss of activity”. The “anticancer activity (in words)” value in data set [6] was “loss-of activity”.

Take `CC[C@H](C)[C@H](NC(=O)[C@H](CCCCN)NC(=O)[C@H](CCCNC(=N)N)NC(=O)CN)C(=O)N[C@@H](CC(C)C)C(=O)N[C@@H](CCCNC(=N)N)C(=O)N[C@@H](C)C(=O)N[C@@H](Cc1c[nH]c2ccccc12)C(=O)N[C@@H](CCCCN)C(=O)N[C@@H](CCCCN)C(=O)N[C@@H](Cc1ccc(O)cc1)C(=O)NCC(N)=O` [Syn3] (H-GRKILRAWKKYG-NH2; N-terminus assumed): the “antimalarial activity (in words)” value in data set [3] was “very low potentiality”. Moreover, the “antimicrobial activity (in words)” value in data set [5] is reported as “loss of activity”. Moreover, the “anticancer activity (in words)” value in data set [6] was “loss-of activity”.
